According to the supplement of paper PMC10307832:

Experiments:
Assay in all cases: relative viability (nuclei count vs DMSO), 5 days (fraction); higher = more cells survive
QS11 + Luminespib = compound: C1CC2=C(C1)C=C(C=C2)OC3=NC(=C4C(=N3)N(C=N4)CC5=CC=C(C=C5)C6=CC=CC=C6)N[C@@H](CC7=CC=CC=C7)CO [QS11] + CCNC(=O)c1noc(-c2cc(C(C)C)c(O)cc2O)c1-c1ccc(CN2CCOCC2)cc1 [Luminespib] (partner 0.01 µM)
Procedure, shortened: (§1)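 Relative viability divides the nuclei count in treated wells by that in vehicle wells. Lung cancer cell lines were seeded in 1536-well plates, dosed by pin tool the next day, and fixed and stained after 5 days in one step with final 0.05% Triton X-100, 1% formaldehyde and 1 ug/ml Hoechst. Dosing was a single drug or a fixed anchor-drug dose plus five library-drug doses (not always all listed) in √10 steps, and values are medians of duplicate plates imaged at 4×.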

AZ628 + Vorinostat = compound: CC1=C(C=C(C=C1)NC(=O)C2=CC(=CC=C2)C(C)(C)C#N)NC3=CC4=C(C=C3)N=CN(C4=O)C [AZ628] + O=C(CCCCCCC(=O)Nc1ccccc1)NO [Vorinostat] (partner 1 µM)
Procedure, shortened: as §1

[1] = compound: C[As](C)SC[C@H](NC(=O)CC[C@H](N)C(=O)O)C(=O)NCC(=O)O [Darinaparsin] + CS(=O)(=O)N1CCN(Cc2cc3nc(-c4cccc5[nH]ncc45)nc(N4CCOCC4)c3s2)CC1 [Pictilisib] (partner 1 µM)
Procedure, shortened: as §1

[2] = compound: C[As](C)SC[C@H](NC(=O)CC[C@H](N)C(=O)O)C(=O)NCC(=O)O [Darinaparsin] + O=C(CCCCCCC(=O)Nc1ccccc1)NO [Vorinostat] (partner 1 µM)
Procedure, shortened: as §1

Cell Line	relative viability (QS11 + Luminespib; first compound 0.08 µM)	relative viability (QS11 + Luminespib; first compound 0.253 µM)	relative viability (QS11 + Luminespib; first compound 2.53 µM)	relative viability (QS11 + Luminespib; first compound 8 µM)	relative viability (AZ628 + Vorinostat; first compound 0.08 µM)	relative viability (AZ628 + Vorinostat; first compound 0.253 µM)	relative viability (AZ628 + Vorinostat; first compound 0.8 µM)	relative viability (AZ628 + Vorinostat; first compound 2.53 µM)	relative viability (AZ628 + Vorinostat; first compound 8 µM)	relative viability ([1]; first compound 0.08 µM)	relative viability ([1]; first compound 0.8 µM)	relative viability ([1]; first compound 2.53 µM)	relative viability ([1]; first compound 8 µM)	relative viability ([2]; first compound 0.08 µM)	relative viability ([2]; first compound 0.8 µM)	relative viability ([2]; first compound 2.53 µM)	relative viability ([2]; first compound 8 µM)	relative viability (QS11 + Luminespib; first compound 0.8 µM)
H3255	0.818	1.06	0.966	0.961	0.838	0.781	0.846	0.87	0.824	0.474	0.429	0.421	0.514	0.746	0.788	0.745	0.895	
LOU-NH91	0.361	0.361	0.308	0.368	1	0.911	0.904	0.794	0.675	0.535	0.492	0.553	0.56	0.937	0.885	0.86	0.969	0.34
NCI-H2126	0.923	0.976	0.766	0.726	0.862	0.786	0.642	0.729	0.703	0.506	0.499	0.474	0.533	0.77	0.687	0.743	0.708	0.695
PC-14		0.14	0.135	0.148	0.762	0.745	0.632	0.677	0.232	1.15	0.823	0.566	0.752	0.691	0.753	0.545	0.572	0.183
EMC-BAC-2	1.28	1.27	0.953	0.961	0.878	0.57	0.642	0.562	0.449	0.607	0.501	0.582	0.568	0.554	0.417	0.546	0.42	0.817
HCC-78					0.523	0.439	0.465	0.565	0.457	0.191	0.228	0.246	0.267	0.487	0.422	0.465	0.43	
SK-LU-1	0.21	0.192	0.223	0.211	0.595	0.896	0.726	0.758	0.611	0.661	0.58	0.502	0.789	0.742	0.784	0.591	0.702	0.211
ABC-1	0.656	0.861	0.828	0.842	1.26	0.789	1.27	0.955	1.07	0.793	0.648	0.738	0.904	1.59	1.09	1.05	1.26	
LK-2	0.164	0.229	0.172	0.146	0.272	0.244	0.396	0.275	0.222	0.634		0.547	0.564	0.283	0.268	0.256	0.263	0.178
NCI-H23	0.212	0.237	0.227	0.182	0.709	0.555	0.524	0.404	0.333	0.431	0.494	0.444	0.603	0.62	0.485	0.663	0.716	0.208
NCI-H2228	0.0998	0.191	0.14	0.145	0.697	0.684	0.644	0.507	0.432	0.401	0.344	0.473	0.544	0.771	0.839	0.388	0.672	0.154
NCI-H441	0.376	0.286	0.315	0.328	0.782	0.749	0.67	0.673	0.68	0.566	0.498	0.424	0.548	1.15	0.751	0.847	0.884	0.329
NCI-H460	0.0331	0.0356	0.0243	0.0438	0.728	0.715	0.644	0.641	0.24	0.479	0.415	0.373	0.406	1.35	0.831	0.569	1	0.0316
LU99A	0.238	0.269	0.273	0.335	0.511	0.473	0.496	0.52	0.33	0.336	0.313	0.294	0.322	0.477	0.47	0.524	0.455	0.284
NCI-H358	0.435	0.457	0.414	0.444	0.762	0.424	0.386	0.336	0.262	0.315	0.319	0.343	0.319	0.744	0.636	0.594	0.745	0.479
IA-LM					1.01	0.962	0.657	0.722	0.21	0.414	0.408	0.949	0.313	0.947	1.07	1.2	0.89	
UMC-11	1.01	1.13	1.27	1.12	0.442	0.336	0.361	0.328	0.36	0.897	0.821	0.75	0.915	0.339	0.314	0.384	0.308	0.995
LXF-289	0.544	0.739	0.519	0.551	0.817	0.755	0.701	0.71	0.473	0.806	0.749	0.597	0.981	0.775	0.788	0.828	0.779	0.544
NCI-H647	0.155	0.321	0.171	0.141	0.54	0.845	0.524	0.833	0.488	0.449	0.396	0.488	0.47	0.608	0.751	0.539	0.572	0.118
NCI-H1651	1.05	0.923	0.714	0.752	0.584	0.491	0.573	0.559	0.561	0.721	0.554	0.471	0.865	0.523	0.558	0.58	0.571	0.75
NCI-H838	0.284	0.246	0.289	0.275	0.753	0.72	0.677	0.722	0.718	0.481	0.407	0.39	0.472	0.704	0.738	0.728	0.76	0.282
NCI-H661	0.988	0.96	1.08	0.839	0.831	0.916	0.818	0.778	0.743	0.422	0.4	0.491	0.42	0.86	0.729	0.753	0.858	0.806

Cell Line	relative viability (QS11 + Luminespib; first compound 0.08 µM)	relative viability (QS11 + Luminespib; first compound 0.253 µM)	relative viability (QS11 + Luminespib; first compound 2.53 µM)	relative viability (QS11 + Luminespib; first compound 8 µM)	relative viability (AZ628 + Vorinostat; first compound 0.08 µM)	relative viability (AZ628 + Vorinostat; first compound 0.253 µM)	relative viability (AZ628 + Vorinostat; first compound 0.8 µM)	relative viability (AZ628 + Vorinostat; first compound 2.53 µM)	relative viability (AZ628 + Vorinostat; first compound 8 µM)	relative viability ([1]; first compound 0.08 µM)	relative viability ([1]; first compound 0.8 µM)	relative viability ([1]; first compound 2.53 µM)	relative viability ([1]; first compound 8 µM)	relative viability ([2]; first compound 0.08 µM)	relative viability ([2]; first compound 0.8 µM)	relative viability ([2]; first compound 2.53 µM)	relative viability ([2]; first compound 8 µM)	relative viability (QS11 + Luminespib; first compound 0.8 µM)
NCI-H1734	0.2	0.199	0.179	0.168	0.923	0.773	0.761	0.772	0.463	0.534	0.473	0.421	0.559	0.934	0.752	0.773	0.746	0.186
HCC-827	0.587	0.508	0.694	0.675	0.963	0.795	0.906	0.921	0.552	1.06	0.907	0.901	1.01	0.874	0.818	0.775	0.963	0.597
201T	1.08	1.12	1.01	0.692	1.06	1.02	1.08	1.04	1.08	0.757	0.622	0.623	0.767	1.03	0.905	0.917	1.14	0.815
HCC-44	1.08	1.18	0.937	1.24	1.16	1.17	1.15	1.02	0.491	0.852	0.574	0.44	0.677	1.24	1.12	1.05	1.09	0.805
NCI-H650	0.758	0.806	0.654	0.868	0.454	0.63	0.554	0.673	0.44	0.856	0.834	0.922	1.13	0.335	0.408	0.427	0.423	0.802
PC-3 [JPC-3]	0.708	0.729	0.718	0.703	1.15	0.7	0.891	0.793	0.709	0.747	0.674	0.63	0.877	0.903	0.739	0.945	0.872	0.663
NCI-H1395	0.795	0.549	0.843	0.819	0.936	0.61	0.665	0.62	0.607	0.538	0.617	0.619	0.568	0.813	0.722	0.582	0.589	0.762
CAL-12T	0.608	0.578	0.362	0.551	0.802	0.634	0.643	0.522	0.417	0.392	0.335	0.473	0.478	1.09	0.707	0.785	0.931	0.478
Calu-6										1.2	0.801	0.924	0.988					
NCI-H1563	0.59	0.541	0.532	0.452						0.693	0.63	0.594	0.602					0.513
NCI-H1648					0.544	0.372	0.333	0.375	0.323						0.301		0.56	
NCI-H2342	0.787	0.754	0.697	0.746	0.928	0.692	0.81	0.753	0.825					0.876	0.721	0.734	0.828	0.721
NCI-H522	1.01	1.35	0.98	1.17	0.924	0.891	0.95	0.82	0.695					0.85	0.909	0.798	0.905	0.945
NCI-H1792	0.432	0.417	0.369	0.409						0.169	0.235	0.243	0.356					0.386
A549										0.601	0.517	0.344	0.653					
NCI-H1703										0.236	0.271	0.261	0.268					
HCC-366					0.404	0.39	0.399	0.255	0.396	0.108	0.13	0.158	0.162	0.454		0.339	0.436	
NCI-H1299										1.03	0.882	0.751	0.808					
NCI-H1623	0.529	0.705	0.479	0.503														0.486
EBC-1										0.393	0.359	0.433	0.288					
SW 900	0.18	0.197	0.17	0.178	0.622	0.463	0.573	0.426	0.534					0.457		0.635	0.596	0.166
